Values after ≈ are worked out from the molar mass of the structure shown. Read-outs that look alike come from different tables or passages of the source.
How the values were obtained:
Escherichia coli = assay: Antimicrobial test (MIC), microtitre plates, TTC stain; type: cell-based; conditions: 48 h, 36° C.
Method: (§1) The inoculum for the tests was prepared by diluting the microorganisms in 0.85% NaCl, the dilution was set to level 0.5 according to McFarland and checked at 580 nm in the spectrophotometer. The cell suspensions were diluted to 10^4 UFC/ml for the application in the tests. The MIC tests were carried out according to the instructions of J. N. P. Eloff (Planta Medica Vol. 64, pp. 711-713, 1998)) in microtitre plates with 96 wells. […] The inoculum (100 μl) was placed in all wells and the plates were incubated for 48 h at a temperature of 36° C. The antimicrobial activity was detected by adding 20 μl of a 0.5% aqueous solution of TTC (tetrazolium chloride, Merck) per well. The minimal inhibition concentration (MIC) was defined as the lowest concentration of the compound that inhibited visible growth (indicated by TTC stain).

B. subtilis = assay: as above; type: cell-based; conditions: Bacillus subtilis, 48 h, 36° C.
Method: as §1

E. faecium = assay: as above; type: cell-based; conditions: Enterococcus faecium, 48 h, 36° C.
Method: as §1

Micrococcus luteus = assay: as above; type: cell-based; conditions: 48 h, 36° C.
Method: as §1

S. epidermides = assay: as above; type: cell-based; conditions: 48 h
Method: as §1

Salmonella choterasuis = assay: as above; type: cell-based; conditions: Salmonella choterasuis (Tables 3, 4: Salmonella), 48 h, 36° C.
Method: as §1

S. falcium = assay: as above; type: cell-based; conditions: 48 h, 36° C.
Method: as §1

Candida albicans = assay: as above; type: cell-based; conditions: 48 h, 36° C.
Method: as §1

Staphylococcus aureus = assay: as above; type: cell-based; conditions: 48 h, 36° C.
Method: as §1

Rhodococcus equi = assay: as above; type: cell-based; conditions: Rhodococcus (subgen. Prescottella) equi, 48 h, 36° C.
Method: as §1

[1] = tested on: human cancer cell lines NCI-460, MCF-7, NCI-ADR, UACC-62, K-562, HT-29, 786-0, OVCAR-3, PC-3; assay: SRB test, all tested human cancer cell lines (FIGS. 1-6)
E. falcium = assay: Antimicrobial test (MIC), microtitre plates, TTC stain; type: cell-based; conditions: 48 h, 36° C.
Method: as §1

Lung NCI-460 = conditions: for ED50 (effective dosage which killed 50% of the human cancer cells): NCI460, 48 hours incubation; for cytocidal activity: NCI-460 (lung cancer cell line)
mamma (breast) MCF-7 = conditions: MCF7, 48 hours incubation
[2] = tested on: skin cancer (melanoma) UACC-62; conditions: for ED50 (effective dosage which killed 50% of the human cancer cells): UACC62, 48 hours incubation
WI38 (fibroblasts) = assay: Comparison test on non-pathogenic line; conditions: WI38, non-pathogenic line for comparison

SMILES	MIC (Escherichia coli)	MIC (B. subtilis)	MIC (Micrococcus luteus)	MIC (Candida albicans)	MIC (Staphylococcus aureus)	MIC (Rhodococcus equi)	MIC (E. falcium)	MIC (E. faecium)	MIC (Salmonella choterasuis)	MIC (S. falcium)	concentration at which cytostatic activity begins ([1]; against all tested cell lines)	also measured
CC(=O)c1ccc(OCC=C(C)C)cc1OCC=C(C)C [2,4O, 1-[2,4-bis(3-methylbut-2-enyloxy)phenyl]ethanone]	500 to 1000 µg/mL (≈ 1730 to 3470 µM)	500 to 1000 µg/mL (≈ 1730 to 3470 µM)	500 to 1000 µg/mL (≈ 1730 to 3470 µM)	500 to 1000 µg/mL (≈ 1730 to 3470 µM)	500 to 1000 µg/mL (≈ 1730 to 3470 µM)	500 to 1000 µg/mL (≈ 1730 to 3470 µM)	–	500 to 1000 µg/mL (≈ 1730 to 3470 µM)	500 to 1000 µg/mL (≈ 1730 to 3470 µM)	500 to 1000 µg/mL (≈ 1730 to 3470 µM)	25 µg/mL	MIC (S. epidermides): 500 to 1000 µg/mL (≈ 1730 to 3470 µM); concentration at which cytocidal activity begins ([1]; against all tested cell lines): 250 µg/mL
O=C(N[C@H](CO)[C@H](O)c1ccc([N+](=O)[O-])cc1)C(Cl)Cl [Chloramphenicol, reference compound]	40 µg/mL (≈ 124 µM)	20 µg/mL (≈ 61.9 µM)	50 µg/mL (≈ 155 µM)	–	20 µg/mL (≈ 61.9 µM)	40 µg/mL (≈ 124 µM)	120 µg/mL (≈ 371 µM)	120 µg/mL (≈ 371 µM)	60 µg/mL (≈ 186 µM)	120 µg/mL (≈ 371 µM)	–	MIC (S. epidermides; S. epidermides, 36° C., read-out: MIC): 40 µg/mL (≈ 124 µM)
C=CC(C)(C)c1cc(CC=C(C)C)cc(C(C)=O)c1O [LMK7, 1-[3-(1,1-dimethylallyl)-2-hydroxy-5-(3-methylbut-2-enyl)phenyl]-ethanone]	–	–	–	–	–	–	–	–	–	–	25 µg/mL	cytocidal activity (Lung NCI-460): did not, however, exhibit any cytocidal activity
CC(=O)c1ccc(OCC=C(C)C)cc1 [LP1, 1-[4-(3-methylbut-2-enyloxy)phenyl]ethanone]	> 1500 µg/mL	> 1500 µg/mL	> 1500 µg/mL	> 1500 µg/mL	> 1500 µg/mL	> 1500 µg/mL	–	> 1500 µg/mL	120 to 250 µg/mL (≈ 587 to 1220 µM)	> 1500 µg/mL	25 µg/mL	MIC (S. epidermides): 60 to 120 µg/mL (≈ 294 to 587 µM); melting point: 47 °C; concentration at which cytocidal activity begins ([1]; against all tested cell lines): 250 µg/mL

More lines, main results first:

MIC (Escherichia coli)	MIC (B. subtilis)	MIC (Micrococcus luteus)	MIC (Candida albicans)	MIC (Staphylococcus aureus)	MIC (Rhodococcus equi)	MIC (E. falcium)	SMILES	MIC (E. faecium)	MIC (Salmonella choterasuis)	MIC (S. falcium)	concentration at which cytostatic activity begins ([1]; against all tested cell lines)	also measured
> 1000 µg/mL	500 to 1000 µg/mL (≈ 2450 to 4900 µM)	250 to 500 µg/mL (≈ 1220 to 2450 µM)	60 µg/mL (≈ 294 µM)	500 µg/mL (≈ 2450 µM)	> 1000 µg/mL	250 µg/mL (≈ 1220 µM)	CC(=O)c1ccccc1OCC=C(C)C [Compound L1, 1-[2-(3-methylbut-2-enyloxy)phenyl]ethanone]	–	250 µg/mL (≈ 1220 µM)	–	–	ED50 (effective dosage which killed 50% of the human cancer cells) (Lung NCI-460): 25.0 µg/mL; cytocidal activity (Lung NCI-460): cytocidal activity; ED50 (effective dosage which killed 50% of the human cancer cells) (mamma (breast) MCF-7): 25.0 µg/mL; cytostatic activity (inhibition of cell growth) ([1]; against all tested cell lines): cytostatic activity; ED50 (effective dosage which killed 50% of the human cancer cells) [2]: 45.0 µg/mL; cytocidal activity ([2]; UACC-62): cytocidal activity
50 µg/mL (≈ 245 µM)	500 to 1000 µg/mL (≈ 2450 to 4900 µM)	500 to 1000 µg/mL (≈ 2450 to 4900 µM)	50 µg/mL (≈ 245 µM)	> 1000 µg/mL	> 1000 µg/mL	500 to 1000 µg/mL (≈ 2450 to 4900 µM)	CC(=O)c1cc(CC=C(C)C)ccc1O [Compound L2]	–	500 to 1000 µg/mL (≈ 2450 to 4900 µM)	–	–	activity against fibroblasts (WI38 (fibroblasts)): not active against fibroblasts; activity against fibroblasts (WI38 (fibroblasts); listed as 1-[2-Hydroxy-5-(3-methylbut-2-enyl)ethanone): without damaging the fibroblasts; ED50 (effective dosage which killed 50% of the human cancer cells) (Lung NCI-460): 9.0 µg/mL; ED50 (effective dosage which killed 50% of the human cancer cells) (mamma (breast) MCF-7): 6.0 µg/mL; activity on all cell lines ([1]; at concentrations ranging between 0.5 and 250 μg/ml): very strong activity; ED50 (effective dosage which killed 50% of the human cancer cells) [2]: 4.2 µg/mL
> 1000 µg/mL	> 1000 µg/mL	500 to 1000 µg/mL (≈ 1840 to 3670 µM)	900 µg/mL (≈ 3300 µM)	> 1000 µg/mL	> 1000 µg/mL	500 to 1000 µg/mL (≈ 1840 to 3670 µM)	CC(=O)c1cc(CC=C(C)C)ccc1OCC=C(C)C [Compound L3, 1-[5-(3-methylbut-2-enyl)-2-(3-methylbut-2-enyloxy)phenyl]-ethanone]	–	> 1500 µg/mL	–	–	–
